The text below walks through data of US20100009970A1, “COMPOSITIONS AND METHODS FOR TREATMENT OF VIRAL DISEASES” (Combinatorx (Singapore) Pte. Ltd., priority 2008, published 2010).

Series [1] has as its system Huh7 cells expressing a subgenomic RNA replicon of Con1 (genotype 1b) sequence origin.
A further series is described as follows: in vitro. As to conditions: human, CC50 (uM) [SG].
In series [2] the test system is Huh7 cells expressing a subgenomic RNA replicon of Con1 (genotype 1b) sequence origin. The experiment in a line: microbe, parasite or virus in culture. To be noted: Hepatitis C virus; for IC50: Huh-7, read-out: IC50 (uM) [SG]; for Emax: Huh-7, read-out: Max Effect@CC30 (inhibition); for IC90: Huh-7.

Structures can show the parent of a compound that is named as a salt. Where two headings read alike, the source gives them in different places. Some results are limits rather than exact numbers.

In the case of `C[C@]12CC[C@H]3[C@@H](CCC4=CC(=O)CC[C@@]43C)[C@@H]1CC[C@@H]2C(=O)CO` [Desoxycorticosterone (e.g., acetate), deoxycorticosterone, reference compound], the IC50 (usually the concentration that gives 50% inhibition) in series [1] is 14.7 µM.
The same measure, in the same setting: in the case of `COc1ccc(-c2nc(C(=O)N3CCN(C)CC3)sc2-c2ccc(OC)cc2)cc1` [FR122047, reference compound] it was 23 µM.
Turning to `O=C(O)CN(CC(=O)O)c1ccccc1OCCOc1ccccc1N(CC(=O)O)CC(=O)O` [1,2-Bis-(2-aminophenoxy)ethane N,N,N,N,-tetreacetic acid, reference compound], the IC50 in series [1] amounted to 14.5 µM.
The same measure, in the same setting: in the case of `CCCCC1C(=O)N(c2ccccc2)N(c2ccc(O)cc2)C1=O` (stereo not drawn) [Oxyphenbutazone (e.g., hydrate), oxyphenbutazone, reference compound] it was 4.17 µM; in that of `C/C1=C2/[N-][C@H]([C@H](CC(N)=O)[C@@]2(C)CCC(=O)NC[C@@H](C)OP(=O)([O-])O[C@H]2[C@@H](O)[C@@H](n3cnc4cc(C)c(C)cc43)O[C@@H]2CO)[C@]2(C)N=C(/C(C)=C3N=C(/C=C4N=C1[C@@H](CCC(N)=O)C\4(C)C)[C@@H](CCC(N)=O)[C@]\3(C)CC(N)=O)[C@@H](CCC(N)=O)[C@]2(C)CC(N)=O.[Co+3].[OH-]` [Hydroxocobalamin, hydroxocobalamin, reference compound], 1.33 µM; in that of `Cc1ccc(NCCCc2ccccc2)c(N)c1` [JSH-23, reference compound], 2.55 µM.
Same read-out and setting: in the case of `Nc1nc(-c2nn(Cc3ccccc3F)c3ncccc23)ncc1C1CC1` [Bay 41-2272, reference compound] it was 0.754 µM.
`O=c1cc(N2CCOCC2)oc2c1ccc1ccccc12` [DNA-PK inhibitor II, reference compound] registered an IC50 in series [1] of 6.52 µM.
The same measure, in the same setting: in the case of `COc1ccc(C[C@H]2NC[C@H](O)[C@H]2OC(C)=O)cc1` [Anisomycin, reference compound] it was 0.608 µM; in that of `N#C/C(=C\c1ccc(O)c(O)c1)C(N)=O` [Tyrphostin 46, tyrphostin A46, reference compound], 21.2 µM.
Still for that read-out and setting: the same measure for `CC1=C(/C=C/C(C)O)C(C)(C)CCC1` (stereo not drawn) [Beta-Ionol]: 21 µM; for `Cc1ccc(S(=O)(=O)/C=C/C#N)cc1` [Bay 11-7082, reference compound]: 15 µM.
Take “N-Tosyl-L-phenylalanine chloromethyl ketone [reference compound]”: in series [1], half-maximal inhibition (IC50) was put at 16.7 µM.
Still for that read-out and setting: the same measure for `N#CC(C#N)=Cc1cc(O)c(O)c(O)c1` [Tyrphostin 25, tyrphostin 25, reference compound]: 16 µM; for `CCN(CC)c1ccc(C(=C2C=CC(=[N+](CC)CC)C=C2)c2cc(S(=O)(=O)O)ccc2S(=O)(=O)[O-])cc1` [Isosulfan Blue, reference compound]: 24.9 µM.
Still for that read-out and setting: the same measure for `Nc1ccccc1NC(=O)CCCCCCC(=O)Nc1ccccc1` [CAY10433, reference compound]: 7.88 µM.
Same read-out and setting: the same measure for `CC(=O)ON=C1C(=O)N(Cc2cc(Cl)ccc2Cl)c2ccc(Cl)cc21` [UCH-L1 inhibitor, reference compound]: 17.2 µM.
In series [1], `COc1ccc(CCN(C)CCC[C@](C#N)(c2ccc(OC)c(OC)c2)C(C)C)cc1OC` [R(+)-Verapamil (e.g., hydrochloride), R(+)-Verapamil, reference compound] came in with an IC50 of 15.7 µM.
Still for that read-out and setting: in the case of `Nc1ccc(C(=O)O)c(O)c1` [P-Aminosalicylic acid, reference compound] it was 13.2 µM; in that of `CCC(Cc1c(I)cc(I)c(O)c1I)C(=O)O` (stereo not drawn) [Iophenoxic acid, reference compound], 10.6 µM.
The compound `CC(=O)O[C@@]12CO[C@@H]1C[C@H](O)[C@@]1(C)C(=O)[C@H](O)C3=C(C)[C@@H](O)C[C@@](O)([C@@H](OC(=O)c4ccccc4)[C@H]21)C3(C)C` [10-Deacetylbaccatine Iii, reference compound] showed an IC50 in series [1] of 10.3 µM.
Same read-out and setting: the same measure for `C/C1=C2/[N-][C@H]([C@H](CC(N)=O)[C@@]2(C)CCC(=O)NC[C@H](C)OP(=O)([O-])O[C@H]2[C@@H](O)[C@@H](n3cnc4cc(C)c(C)cc43)O[C@@H]2CO)[C@]2(C)N=C(/C(C)=C3N=C(/C=C4N=C1[C@@H](CCC(N)=O)C\4(C)C)[C@@H](CCC(N)=O)[C@]\3(C)CC(N)=O)[C@@H](CCC(N)=O)[C@]2(C)CC(N)=O.[CH3-].[Co+3]` [Mecobalamin, mecobalamin, reference compound]: 0.179 µM.
The compound `CN[C@H]1CC[C@@H](c2ccc(Cl)c(Cl)c2)c2ccc(NS(=O)(=O)c3cn(C)cn3)cc21` [N-((5S,8S)-5-(3,4-dichlorophenyl)-8-(methylamino)-5,6,7,8-tetrahydronaphthalen-2-yl)-1-methyl-1H-imidazole-4-sulfonamide] registered a CC50 in “in vitro” of 13.6 µM. Further, in series [2], the half-inhibitory concentration (IC50) came to 7.76 µM and the Emax was 20.2%.
For `CN[C@H]1CC[C@@H](c2ccc(Cl)c(Cl)c2)c2ccc(C(=O)Nc3ccccn3)cc21` [Sertraline A-ring Pyridine Carboxamide, (5S,8S)-5-(3,4-dichlorophenyl)-8-(methylamino)-N-(pyridin-2-yl)-5,6,7,8-tetrahydronaphthalene-2-carboxamide], in that order: 7.05 µM, 4.43 µM and 61.3%.
Compound `CC(=O)NCc1ccc2c(c1)[C@@H](N(C)C)CC[C@H]2c1ccc(Cl)c(Cl)c1` [N-(((5S,8S)-5-(3,4-dichlorophenyl)-8-(dimethylamino)-5,6,7,8-tetrahydronaphthalen-2-yl)methyl)acetamide] showed a CC50 in “in vitro” of 19.1 µM. Moreover, in series [2], the 90% effect level (IC90) was put at 9.72 µM, the IC50 came to 4.45 µM and the Emax came to 92%.
`CSc1ccc(Oc2ccc(S(N)(=O)=O)cc2CN2CCN(C3CCN(C)CC3)CC2)cc1C` [Compound 90, 4-(3-methyl-4-(methylthio)phenoxy)-3-((4-(1-methylpiperidin-4-yl)piperazin-1-yl)methyl)benzenesulfonamide] showed a CC50 in the series “in vitro” of 9.1 µM. For the same compound, in series [2], the IC90 (commonly the concentration needed for an effect of 90%) was 7.48 µM and the IC50 was determined as 2.03 µM.
The compound `CN[C@H]1CC[C@@H](c2ccc(Cl)c(Cl)c2)c2ccc(N(C)C(C)=O)cc21` [N-((5S,8S)-5-(3,4-dichlorophenyl)-8-(methylamino)-5,6,7,8-tetrahydronaphthalen-2-yl)-N-methylacetamide] showed a CC50 in “in vitro” of 14.6 µM. In addition, in series [2], it took 10.7 µM to reach the 90% level (IC90) and the IC50 was found to be 3.79 µM.
Compound `CNCc1ccccc1Oc1ccc(SC)cc1` [Compound 33, N-methyl(2-(4-(methylthio)phenoxy)phenyl)methanamine] showed a CC50 in the series “in vitro” of more than 50 µM. Moreover, in series [2], the IC50 is 30.2 µM and the Emax was found to be 72.3%.
In the series “in vitro”, `CN[C@H]1CC[C@@H](c2ccc(Cl)c(Cl)c2)c2ccc(CS(=O)(=O)c3ccccc3)cc21` [(1S,4S)-4-(3,4-dichlorophenyl)-N-methyl-7-(phenylsulfonylmethyl)-1,2,3,4-tetrahydronaphthalen-1-amine] displayed a CC50 of 6.7 µM. In series [2], the IC50 worked out at 6.24 µM.
In the same order, the values of `CSc1ccc(Oc2ccc(S(N)(=O)=O)cc2CN2CCN(c3ccccc3F)CC2)cc1C` [Compound 87, 3-((4-(2-fluorophenyl)piperazin-1-yl)methyl)-4-(3-methyl-4-(methylthio)phenoxy)benzenesulfonamide] are 30.2 µM and 23.5 µM.
